This note sets out measurements from patent US6362188B1, “Farnesyl protein transferase inhibitors” (Schering Corporation, priority 1998, dated 2002).

One series deals with Human tumor cells. The experiment in a line: Soft Agar Assay (anchorage-independent growth). Format: cell-based. The following applies: colony outgrowth in soft agar, stated as a range for the group. In short, it runs like this: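 Tumor cells suspended in 0.3% agarose over a 0.6% agarose base, both layers containing the same farnesyl transferase inhibitor concentration. Incubated 10-16 days at 37° C, 5% CO2; colonies stained with MTT (1 mg/mL in PBS) and counted, IC50 determined.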

A word on the IC50: it is the concentration at which inhibition is half-maximal. In general, melting point refers to the temperature, or range, at which the solid turns liquid. In the case of `Cc1cn(CC2CCCN(C(=O)C3CN(C4c5ccccc5CCc5cc(Cl)cnc54)CCN3C(=O)OC(C)(C)C)C2)cn1` (stereo not shown) [Example 292], the melting point was 95 to 105 °C. The compound further came in with an IC50 in the series on Human tumor cells of 0.05 to 30 nM.

For the compound `Cc1cn(CC2CCCCN(C(=O)C3CN(C4c5ccc(Cl)cc5CCc5cccnc54)CCN3C(=O)OC3CCCCC3)C2)cn1` (stereo not shown) [Example 47(CC)], the melting point fell in the range of 108 to 113 °C. In the series on Human tumor cells, this compound gave an IC50 of 0.05 to 30 nM.

In turn, `Cc1cn(C[C@@H]2CCCN(C(=O)[C@H]3CN([C@@H]4c5ccccc5CCc5cc(F)cnc54)CCN3C(=O)OC3CCCCC3)C2)cn1` [Example 384] displayed a melting point of 104 to 111 °C. In addition, the IC50 in the series with Human tumor cells lay in the range of 0.05 to 30 nM.

`Cc1cn(C[C@@H]2CCCN(C(=O)[C@H]3CN([C@H]4c5ccc(Cl)cc5CCc5ccc[n+]([O-])c54)CCN3C(=O)OC3CCCCC3)C2)cn1` [Example 387] came in with a melting point of 85 to 90 °C. Also, the IC50 with Human tumor cells was in the range of 0.05 to 30 nM.

In turn, `CC(C)(C)OC(=O)N1CCN([C@H]2c3ccc(Cl)cc3CCc3cc(Br)cnc32)C[C@@H]1C(=O)N1CCC[C@H](Cn2ccnc2)C1` [Example 11] returned a melting point of 122 to 127 °C. In addition, in the series on Human tumor cells, the IC50 lay within 0.5 to 30 nM.

For the compound `CC(C)OC(=O)N1CCN([C@@H]2c3ccc(Cl)cc3CCc3cc(Br)cnc32)C[C@@H]1C(=O)N1CCC[C@@H](Cn2ccnc2)C1` [Example 14], the melting point fell in the range of 126 to 128 °C. Further, the IC50 in the series with Human tumor cells fell in the range of 0.5 to 30 nM.

Regarding `Cc1cn(CC2CCCN(C(=O)C3CN(C4c5ccc(Cl)cc5CCc5cc(F)cnc54)CCN3C(=O)OC3CCCCC3)C2)cn1` (stereo not shown) [Example 287], the melting point was in the range of 116 to 123 °C. For the same compound, the IC50 in the series with Human tumor cells lay in the range of 0.05 to 30 nM.

The compound `CC(C)OC(=O)N1CCN(C2c3ccc(Cl)cc3CCc3cccnc32)CC1C(=O)N1CCCC(Oc2cccnc2)C1` (stereo not shown) [41(C)] gave a melting point of 104 to 108 °C. In the series with Human tumor cells, the IC50 lay in the range of 0.05 to 30 nM.

For the compound `Cc1cn(C[C@H]2CCCN(C(=O)[C@H]3CN([C@H]4c5ccccc5CCc5cc(Br)cnc54)CCN3C(=O)OC3CCCCC3)C2)cn1` [Example 353], the melting point was 121 to 127 °C. In the series on Human tumor cells, this compound came in with an IC50 of 0.05 to 30 nM.

For the compound `CC(C)(C)NC(=O)N1CCN([C@@H]2c3ccc(Cl)cc3CCc3cc(Br)cnc32)C[C@@H]1C(=O)N1CCC[C@@H](Cn2ccnc2)C1` [Example 16], the melting point lay in the range of 148 to 153 °C. Moreover, in the series on Human tumor cells, the IC50 lay in the range of 0.5 to 30 nM.

For the compound `Cc1cn(CC2CCCN(C(=O)C3CN(C4c5ccc(Cl)cc5CCc5cccnc54)CCN3C(=O)OC(C)(C)C)C2)cn1` (stereo not shown) [Example 28], the melting point lay in the range of 115 to 132 °C. Also, in the series on Human tumor cells, the IC50 was in the range of 0.5 to 30 nM.

The compound `Cc1cn(C[C@@H]2CCCN(C(=O)[C@H]3CN([C@H]4c5ccccc5CCc5cc(Cl)cnc54)CCN3C(=O)OC3CCCCC3)C2)cn1` [Example 319] gave a melting point of 114 to 118 °C. In the series with Human tumor cells, the concentration for half-maximal inhibition (IC50) fell in the range of 0.05 to 30 nM.

In turn, `Cc1nccn1CC1CCCN(C(=O)C2CN(C3c4ccc(Cl)cc4CCc4cc(Br)cnc43)CCN2C(=O)OC(C)(C)C)C1` (stereo not shown) [Example 3] came in with a melting point of 126 to 131 °C. The IC50 in the series on Human tumor cells is 0.5 to 30 nM.

The compound `Cc1cn(C[C@@H]2CCCN(C(=O)[C@H]3CN([C@H]4c5ccccc5CCc5cc(F)cnc54)CCN3C(=O)OC3CCCCC3)C2)cn1` [Example 383] gave a melting point of 121 to 126 °C. Besides, the half-inhibitory concentration (IC50) with Human tumor cells was 0.05 to 30 nM.

`O=C(C1CN(C2c3ccc(Cl)cc3CCc3cccnc32)CCN1C(=O)OC1CCCCC1)N1CCCC(Cc2cnc[nH]2)C1` (stereo not shown) [47(I)] had a melting point of 113 to 115 °C. For the same compound, in the series with Human tumor cells, the IC50 was in the range of 0.05 to 30 nM.

In the case of `Cn1cncc1CC1CCCN(C(=O)C2CN(C3c4ccc(Cl)cc4CCc4cccnc43)CCN2C(=O)OC2CCCCC2)C1` (stereo not shown) [47(K)], the melting point lay in the range of 101 to 123 °C. This compound also returned an IC50 in the series with Human tumor cells of 0.05 to 30 nM.

As to `Cc1cn(C[C@H]2CCCN(C(=O)[C@H]3CN([C@H]4c5ccc(Cl)cc5CCc5cc(Cl)cnc54)CCN3C(=O)OC(C)(C)C)C2)cn1` [Example 229], the melting point was in the range of 102 to 113 °C. Besides, the IC50 in the series on Human tumor cells is 0.05 to 30 nM.

For `Cc1cn(C[C@H]2CCCN(C(=O)[C@H]3CN([C@H]4c5ccc(Cl)cc5CCc5cc(Cl)cnc54)CCN3C(=O)OC3CCCCC3)C2)cn1` [Example 257], the melting point is 115 to 128 °C. The half-inhibitory concentration (IC50) in the series on Human tumor cells lay in the range of 0.05 to 30 nM.

`Cc1cn(C[C@@H]2CCCN(C(=O)[C@H]3CN([C@@H]4c5ccc(Cl)cc5CCc5cc(Cl)cnc54)CCN3C(=O)OC(C)(C)C)C2)cn1` [Example 228] gave a melting point of 115 to 128 °C. The compound also displayed an IC50 with Human tumor cells of 0.05 to 30 nM.

Take `Cc1nccn1CC1CCCN(C(=O)C2CN(C3c4ccc(Cl)cc4CCc4cccnc43)CCN2C(=O)OC2CCCCC2)C1` (single isomer, unassigned) [Example 44]: the melting point lay within 112 to 135 °C. The 50% inhibitory concentration (IC50) in the series on Human tumor cells is 0.5 to 30 nM.
